“Also recorded” adds a separate entry of the source. Where a SMILES comes first, the peptide text is derived from it. Bridges are numbered along the chain shown (N, C = ends). [ ]: non-standard residue; d: D form. The star is where a group is joined. ξ: configuration not given here. X1 = OC[C@H]1O[C@@H](O[C@H]2[C@H](O)[C@@H](O)[C@H](*)O[C@@H]2CO)[C@H](O)[C@@H](O)[C@H]1O; βGlc = OC[C@H]1O[C@@H](*)[C@H](O)[C@@H](O)[C@@H]1O; d1Nal = N[C@H](Cc1cccc2ccccc12)C(=O)O; ξ1Nal = NC(Cc1cccc2ccccc12)C(=O)O
Key:
mu opioid receptor (MOR) = molecular target: T1, mu opioid receptor (MOR) (Homo sapiens, UniProt P35372); test: Receptor binding, mu opioid receptor (NIMH PDSP); conditions: for reduction of MOR affinity by glycosylation: relative to unglycosylated reference; for MOR affinity, in words: comparison among analogs
T1 construct: NIMH Psychoactive Drug Screening Program (PDSP), University of North Carolina at Chapel Hill (performed the assay)
T1 sequence (P35372 whole entry): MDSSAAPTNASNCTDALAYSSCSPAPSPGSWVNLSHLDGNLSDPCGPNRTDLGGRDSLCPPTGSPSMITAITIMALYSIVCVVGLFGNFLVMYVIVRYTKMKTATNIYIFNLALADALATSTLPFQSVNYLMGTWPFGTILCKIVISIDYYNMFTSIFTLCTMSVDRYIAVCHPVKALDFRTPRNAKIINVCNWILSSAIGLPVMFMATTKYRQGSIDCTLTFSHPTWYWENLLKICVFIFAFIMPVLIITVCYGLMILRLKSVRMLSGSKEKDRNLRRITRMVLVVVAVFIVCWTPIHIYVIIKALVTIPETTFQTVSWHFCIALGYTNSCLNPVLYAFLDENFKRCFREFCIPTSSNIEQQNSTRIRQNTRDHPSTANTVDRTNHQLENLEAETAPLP
Source text: (§1) Receptor Binding Profiles and Ki: The receptor binding an Ki determinations were generously provided by the National Institute of Mental Health's Psychoactive Drug Screening Program (PDSP), Directed by Bryan L. Roth at the University of North Carolina at Chapel Hill and Project Officer Jamie Driscoll at NIMH, Bethesda MD, USA.

[1] = tested on: male and female CD-1 mice; test: Tail flick (TF) antinociception test; type: in vivo; conditions: for rank order of effectiveness, TF AUC: main effects of drug; for rank order of potency (ED50), TF: mg/kg calculations; for TF antinociception AUC: top dose (5.6 mg/kg), mean male and female
Procedure: Tail Flick (TF): CD1 mice were used for this test. The latency to withdraw the tail from a heat source was automatically measured (IITC, Woodland Hills, CA). […] Percent Maximum Possible Effect (% MPE) was determined as [(latency-baseline latency)/(9-baseline latency)]*100.
Statistics/Data Analysis: Data were analyzed with […] PRISM software (GraphPad Software, San Diego CA).

male and female DBA mice = test: Hot plate (HP) antinociception test; conditions: for rank order of potency (ED50), HP: both mg/kg and μmol/kg values; for HP antinociception, in words: s.c., 5 hr test
[2] = molecular target: T2, kappa opioid receptor (KOR) (Homo sapiens, UniProt P41145); test: Receptor binding, kappa opioid receptor (NIMH PDSP); conditions: for kap/mu: ratio of KOR-to-MOR binding (Ki)
T2 construct: NIMH Psychoactive Drug Screening Program (PDSP), University of North Carolina at Chapel Hill (performed the assay)
T2 sequence (P41145 whole entry): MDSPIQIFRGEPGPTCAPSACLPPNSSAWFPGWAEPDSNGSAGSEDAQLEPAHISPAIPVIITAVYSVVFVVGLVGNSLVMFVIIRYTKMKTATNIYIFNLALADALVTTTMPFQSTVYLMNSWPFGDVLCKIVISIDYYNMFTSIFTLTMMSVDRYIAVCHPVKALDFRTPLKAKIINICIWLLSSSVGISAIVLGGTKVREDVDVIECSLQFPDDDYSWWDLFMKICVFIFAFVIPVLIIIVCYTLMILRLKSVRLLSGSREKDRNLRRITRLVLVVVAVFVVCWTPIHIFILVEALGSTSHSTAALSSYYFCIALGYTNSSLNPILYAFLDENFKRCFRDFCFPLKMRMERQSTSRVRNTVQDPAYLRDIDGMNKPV
Source text: as §1

[3] = molecular target: T3, delta opioid receptor (DOR) (Homo sapiens, UniProt P41143); test: Receptor binding, delta opioid receptor (NIMH PDSP)
T3 construct: NIMH Psychoactive Drug Screening Program (PDSP), University of North Carolina at Chapel Hill (performed the assay)
T3 sequence (P41143 whole entry): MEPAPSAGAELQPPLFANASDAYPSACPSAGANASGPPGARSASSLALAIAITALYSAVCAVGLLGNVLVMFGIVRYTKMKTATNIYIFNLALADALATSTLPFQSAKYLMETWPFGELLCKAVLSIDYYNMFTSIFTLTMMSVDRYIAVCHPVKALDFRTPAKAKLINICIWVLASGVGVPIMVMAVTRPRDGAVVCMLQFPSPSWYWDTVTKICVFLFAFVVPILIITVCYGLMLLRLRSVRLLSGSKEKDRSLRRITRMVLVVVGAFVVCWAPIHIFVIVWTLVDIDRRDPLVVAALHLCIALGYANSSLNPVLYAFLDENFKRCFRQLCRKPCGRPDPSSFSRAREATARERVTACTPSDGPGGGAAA
Source text: as §1

[4] = tested on: delta opioid receptor (DOR); test: as above; conditions: ratio of DOR-to-MOR binding (Ki)
Source text: as §1

[5] = i.v.; cited from earlier work
male CD-1 mice = test: Conditioned place preference (CPP)
Procedure: Conditioned Place Preference (CPP): Male CD-1 mice were tested for CPP in a modified 2-chamber apparatus (Noldus, Leesburg, VA). The 20×20 cm chambers had distinct visual and tactile cues: 1) vertical striped walls with circular holes in a metal floor or 2) gray walls with clover-shaped holes. […] Eight arenas were counterbalanced for the cue pattern in the left and right chamber. Tests were conducted in 4 phases: habituation (days 1-2, 30′), baseline (day 4-5, 20′), conditioning (days 6-8, 40′), and testing (day 9, 20′). Two sessions per day were conducted at each phase (9:30 and 10:30 am) and animals were placed in the left chamber in session 1 and the right in session 2. For baseline and testing, both chambers were freely accessible. […] These protocols balanced exposure to the chambers, and for conditioning, minimized drug carry-over effects. CPP was determined as the change in time spent on the drug-associated side minus the time spent on that same side during baseline tests.
After two habituation and two baseline sessions, three conditioning days were conducted. […] The following day, a test session was conducted and CPP was determined as the change in time spent on the drug-associated side minus the time spent on that same side during baseline tests.

SMILES | reduction of MOR affinity by glycosylation (mu opioid receptor (MOR)) | rank order of effectiveness, TF AUC [1] | rank order of potency (ED50), TF [1] | rank order of potency (ED50), HP (male and female DBA mice) | HP antinociception, in words (male and female DBA mice) | MOR affinity, in words (mu opioid receptor (MOR)) | KOR binding, in words [2] | Ki [3] | kap/mu [2] | del/mu [4] | DOR binding, in words [3] | also measured
NC(=O)[C@H](CO[C@@H]1O[C@H](CO)[C@@H](O)[C@H](O)[C@H]1O)NC(=O)[C@@H]1CCC(=O)NCCCC[C@@H](NC(=O)[C@@H](N)Cc2ccc(O)cc2)C(=O)N[C@@H](Cc2c[nH]c3ccccc23)C(=O)N[C@@H](Cc2ccccc2)C(=O)N1 [Analog A1, Tyr-c[D-Lys-Trp-Phe-Glu]-Ser(β-Glc)-NH2] | approximately 5 fold | A2>A7>A1>morphine>ZH853 | A2>A7>A1>morphine >ZH853 | A2>A7>A1>ZH853>morphine | not significantly greater than those of reference compounds | – | – | – | – | – | – | –
NC(=O)[C@H](CO[C@@H]1O[C@H](CO)[C@@H](O[C@@H]2O[C@H](CO)[C@H](O)[C@H](O)[C@H]2O)[C@H](O)[C@H]1O)NC(=O)[C@@H]1CCC(=O)NCCCC[C@@H](NC(=O)[C@@H](N)Cc2ccc(O)cc2)C(=O)N[C@@H](Cc2c[nH]c3ccccc23)C(=O)N[C@@H](Cc2ccccc2)C(=O)N1 [Analog A2, Tyr-c[D-Lys-Trp-Phe-Glu]-Ser(β-Lact)-NH2] | approximately 5 fold | A2>A7>A1>morphine>ZH853 | A2>A7>A1>morphine >ZH853 | A2>A7>A1>ZH853>morphine | robust antinociception; also recorded: significantly greater AUC | – | – | – | – | – | – | TF antinociception (full) ([1]; 1.8 mg/kg): 100 % MPE; dose lower than morphine for equal total TF antinociception, mg/kg basis ([1]; 1.8 mg/kg A2 matched to 10 mg/kg morphine): 5.55 fold; TF antinociception, in words ([1]; s.c., time course and AUC): remained high at the 5-hour limit of the test; TF antinociception AUC [1]: > 25000
NC(=O)[C@H](CO[C@@H]1O[C@H](CO)[C@@H](O)[C@H](O)[C@H]1O)NC(=O)CNC(=O)[C@@H]1CCC(=O)NCCCC[C@@H](NC(=O)[C@@H](N)Cc2ccc(O)cc2)C(=O)N[C@@H](Cc2c[nH]c3ccccc23)C(=O)N[C@@H](Cc2ccccc2)C(=O)N1 [Analog A3] | – | – | – | – | – | lowest MOR affinity | increased KOR affinity | ≥ 10000 nM | – | – | – | –
NC(=O)[C@H](CO[C@@H]1O[C@H](CO)[C@@H](O)[C@H](O)[C@H]1O)NC(=O)[C@@H]1CCC(=O)NCCCC[C@@H](NC(=O)[C@@H](N)Cc2ccc(O)cc2)C(=O)N[C@H](Cc2cccc3ccccc23)C(=O)N[C@@H](Cc2ccccc2)C(=O)N1 [Analog A4] (H-Y[dK][d1Nal]FES(βGlc)-NH2; lactam 2-5) | – | – | – | – | – | – | eliminated delta and kappa binding | ≥ 10000 nM | 157 | 157 | eliminated delta and kappa binding | Ki (mu opioid receptor (MOR)): 63.5 nM; additional reduction of MOR binding by D-Nal substitution of Trp at position 3 (mu opioid receptor (MOR)): 11 fold; Ki [2]: ≥ 10000 nM
NC(=O)[C@H](CO[C@@H]1O[C@H](CO)[C@@H](O[C@@H]2O[C@H](CO)[C@H](O)[C@H](O)[C@H]2O)[C@H](O)[C@H]1O)NC(=O)[C@@H]1CCC(=O)NCCCC[C@@H](NC(=O)[C@@H](N)Cc2ccc(O)cc2)C(=O)N[C@H](Cc2cccc3ccccc23)C(=O)N[C@@H](Cc2ccccc2)C(=O)N1 [Analog A5] (H-Y[dK][d1Nal]FES(X1)-NH2; lactam 2-5) | – | – | – | – | – | – | eliminated delta and kappa binding | ≥ 10000 nM | 181 | 181 | eliminated delta and kappa binding | Ki (mu opioid receptor (MOR)): 55.2 nM; additional reduction of MOR binding by D-Nal substitution of Trp at position 3 (mu opioid receptor (MOR)): 11 fold; Ki [2]: ≥ 10000 nM
NC(=O)[C@H](CO[C@@H]1O[C@H](CO)[C@@H](O)[C@H](O)[C@H]1O)NC(=O)[C@@H]1CCC(=O)NCCCC[C@@H](NC(=O)[C@@H](N)Cc2ccc(O)cc2)C(=O)NC(Cc2cccc3ccccc23)C(=O)N[C@@H](Cc2ccccc2)C(=O)N1 (some centres unmarked) [Analog A6] (H-Y[dK][ξ1Nal]FES(βGlc)-NH2; lactam 2-5) | approximately 5 fold | – | – | – | – | did not reduce MOR affinity | increased KOR affinity | – | 48 | 57 | – | MOR selectivity, in words (mu opioid receptor (MOR); versus DOR and KOR): least selective compound
NC(=O)[C@H](CO[C@@H]1O[C@H](CO)[C@@H](O)[C@H](O)[C@H]1O)NC(=O)[C@H](CO[C@@H]1O[C@H](CO)[C@@H](O)[C@H](O)[C@H]1O)NC(=O)[C@@H]1CCC(=O)NCCCC[C@@H](NC(=O)[C@@H](N)Cc2ccc(O)cc2)C(=O)N[C@@H](Cc2c[nH]c3ccccc23)C(=O)N[C@@H](Cc2ccccc2)C(=O)N1 [Analog A7, Tyr-c[D-Lys-Trp-Phe-Glu]-Ser(β-Glc)-Ser(β-Glc)-NH2] | approximately 5 fold | A2>A7>A1>morphine>ZH853 | A2>A7>A1>morphine >ZH853 | A2>A7>A1>ZH853>morphine | robust antinociception; also recorded: significantly greater AUC | did not change MOR affinity | below detectable levels | – | – | – | below detectable levels | greater HP effectiveness versus control compounds (AUC) (male and female DBA mice; 1.8 mg/kg vs 5.6 mg/kg for controls): approximately 3 fold
NC(=O)CNC(=O)[C@@H]1CCC(=O)NCCCC[C@@H](NC(=O)[C@@H](N)Cc2ccc(O)cc2)C(=O)N[C@@H](Cc2c[nH]c3ccccc23)C(=O)N[C@@H](Cc2ccccc2)C(=O)N1 [ZH853, reference compound] | – | A2>A7>A1>morphine>ZH853 | A2>A7>A1>morphine >ZH853 | A2>A7>A1>ZH853>morphine | – | subnanomolar Ki, showed the highest MOR affinity | – | 271 nM | – | – | – | morphine equivalence [5]: about 1; time of peak response, TF ([1]; s.c.): 30 to 40 min; TF antinociception AUC [1]: 10000
CN1CC[C@]23c4c5ccc(O)c4O[C@H]2[C@@H](O)C=C[C@H]3[C@H]1C5 [morphine, reference compound] | – | – | A2>A7>A1>morphine >ZH853 | A2>A7>A1>ZH853>morphine | – | – | – | – | – | – | – | CPP versus vehicle (male CD-1 mice; 3.2 mg/kg, one-way analysis, p<0.01): greater than vehicle; conditioned place preference (CPP) (male CD-1 mice; 3 equiantinociceptive doses, s.c., n=12): produced CPP; TF antinociception (full) ([1]; 10 mg/kg, n=6): 100 % MPE; time of peak response, TF ([1]; s.c.): 20 to 30 min

From US20250296958A1, “GL[…] E[…]” (THE ADMINISTRATORS OF THE TULANE EDUCATIONAL FUND, priority 2022, published 2025)
